Reference: ChEMBL document CHEMBL4364286, “Structure-Guided Design, Synthesis, and Biological Evaluation of (2-(1H-Indol-3-yl)-1H-imidazol-4-yl)(3,4,5-trimethoxyphenyl) Methanone (ABI-231) Analogues Targeting the Colchicine Binding Site in Tubulin” (J Med Chem, 2019)
pIC50: −log10 of the molar value. Calls of active or inactive are those of the source. The rule behind the calls is not given here.

Tests used:
[1] = system: A-375; assay: Antiproliferative activity against human A375 cells after 72 hrs by MTT assay; format: functional, cell-based; conditions: A-375, 72 h, read-out: IC50
[2] = system: M14; assay: Antiproliferative activity against human M14 cells after 72 hrs by MTT assay; format: functional, cell-based; conditions: M14, 72 h
[3] = system: WM164; assay: Antiproliferative activity against human WM164 cells after 72 hrs by MTT assay; format: functional, cell-based; conditions: WM164, 72 h
[4] = target: Tubulin (Bos taurus) (UniProt Q6B856+Q862L2+Q862F3); assay: Inhibition of bovine brain tubulin polymerization at 10 uM measured at time interval of 1 mins for 20 mins by spectrophotometric analysis
[5] = target: T1, Tubulin (Homo sapiens) (UniProt P68371+Q9H4B7+P0DPH7+P68366+Q13509+Q71U36+P04350+Q3ZCM7+P07437+P68363+Q9BQE3+Q6PEY2+Q13885+Q9BVA1+Q9BUF5); assay: Disruption of microtubule network in human WM164 cells assessed as microtubule fragmentation at 100 nM after 18 hrs by DAPI staining based fluorescence confocal microscopic method; format: cell-based
[6] = target: T1, Tubulin (Homo sapiens); assay: Disruption of microtubule network in human WM164 cells assessed as microtubule disassembly at 100 nM after 18 hrs by DAPI staining based fluorescence confocal microscopic method; format: cell-based
[7] = system: A-375; assay: Inhibition of anchorage-dependent colony formation in human A375 cells assessed as decrease in colony number at 5 nM after 12 days by crystal violet-staining based assay relative to control; format: functional; conditions: A-375, 288 h
[8] = system: A-375; assay: Antimigratory activity in human A375 cells assessed as wound closure at 5 nM after 22 hrs by scratch migration assay (reference value: 60.7 +/- 3.5%); format: functional
[9] = system: A-375; assay: Antimigratory activity in human A375 cells assessed as wound closure at 25 nM after 22 hrs by scratch migration assay (reference value: 60.7 +/- 3.5%); format: functional
[10] = system: RPMI-7951; assay: Antimigratory activity in human RPMI7951 cells assessed as wound closure at 25 nM after 18 hrs by scratch migration assay (reference value: 71.8 +/- 1.8%); format: functional
[11] = Half-life in CD-1 mouse liver microsomes in presence of NADPH regenerating system measured up to 4 hrs by UPLC-MS analysis; format: ADME, Microsome
[12] = Intrinsic clearance in CD-1 mouse liver microsomes in presence of NADPH regenerating system measured up to 4 hrs by UPLC-MS analysis; format: ADME, Microsome; conditions: read-out: CLH
[13] = Half-life in rat liver microsomes pre-incubated for 15 mins followed by addition of NADPH regenerating system by LC-MS analysis; format: ADME, Microsome
[14] = Intrinsic clearance in rat liver microsomes pre-incubated for 15 mins followed by addition of NADPH regenerating system by LC-MS analysis; format: ADME, Microsome; conditions: read-out: CLH
[15] = Half-life in human liver microsomes in presence of NADPH regenerating system; format: ADME, Microsome
[16] = Intrinsic clearance in human liver microsomes in presence of NADPH regenerating system; format: ADME, Microsome; conditions: read-out: CLH
[17] = Toxicity in ip dosed ICR mouse assessed as maximum tolerated dose; format: organism-based; conditions: in vivo
[18] = system: A-375; assay: Antitumor activity against human A375 cells xenografted in nude mouse assessed as tumor growth inhibition at 15 mg/kg, ip administered once daily for 14 days and measured after 20 days by caliper method relative to control; format: functional; conditions: A-375, ip, read-out: TGI
[19] = system: A-375; assay: Antitumor activity against human A375 cells xenografted in nude mouse assessed as tumor growth inhibition at 30 mg/kg, ip administered once daily for 14 days and measured after 20 days by caliper method relative to control; format: functional; conditions: A-375, ip, read-out: TGI
[20] = system: A-375; assay: Antitumor activity against human A375 cells xenografted in nude mouse assessed as reduction in tumor weight at 15 mg/kg, ip administered once daily for 14 days relative to control; format: functional; parameters: scale not given: the % may be the effect or the level left
[21] = system: A-375; assay: Antitumor activity against human A375 cells xenografted in nude mouse assessed as reduction in tumor weight at 30 mg/kg, ip administered once daily for 14 days relative to control; format: functional; parameters: scale not given: the % may be the effect or the level left
[22] = system: B16-F10; assay: Antimetastatic activity against mouse B16F10 cells xenografted in C57BL/6 mouse assessed as reduction in lung metastasis at 30 mg/kg, ip administered once daily for 2 weeks with 2 days rest after day 5 and measured after 15 days relative to control; format: functional; parameters: scale not given: the % may be the effect or the level left
[23] = Acute toxicity in nude mouse xenografted with human A375 cells assessed as injury to lung at 30 mg/kg, ip administered once daily for 14 days by hematoxylin and eosin staining-based assay; format: organism-based; conditions: in vivo, 336 h
[24] = Acute toxicity in nude mouse xenografted with human A375 cells assessed as injury to lung at 15 mg/kg, ip administered once daily for 14 days by hematoxylin and eosin staining-based assay; format: organism-based; conditions: in vivo, 336 h
[25] = Acute toxicity in nude mouse xenografted with human A375 cells assessed as injury to spleen at 15 mg/kg, ip administered once daily for 14 days by hematoxylin and eosin staining-based assay; format: organism-based; conditions: in vivo, 336 h
[26] = Acute toxicity in nude mouse xenografted with human A375 cells assessed as injury to liver at 15 mg/kg, ip administered once daily for 14 days by hematoxylin and eosin staining-based assay; format: organism-based; conditions: in vivo, 336 h
[27] = Acute toxicity in nude mouse xenografted with human A375 cells assessed as injury to kidney at 15 mg/kg, ip administered once daily for 14 days by hematoxylin and eosin staining-based assay; format: organism-based; conditions: in vivo, 336 h
[28] = Acute toxicity in nude mouse xenografted with human A375 cells assessed as injury to heart at 15 mg/kg, ip administered once daily for 14 days by hematoxylin and eosin staining-based assay; format: organism-based; conditions: in vivo, 336 h
[29] = Acute toxicity in nude mouse xenografted with human A375 cells assessed as injury to spleen at 30 mg/kg, ip administered once daily for 14 days by hematoxylin and eosin staining-based assay; format: organism-based; conditions: in vivo, 336 h
[30] = Acute toxicity in nude mouse xenografted with human A375 cells assessed as injury to liver at 30 mg/kg, ip administered once daily for 14 days by hematoxylin and eosin staining-based assay; format: organism-based; conditions: in vivo, 336 h
[31] = Acute toxicity in nude mouse xenografted with human A375 cells assessed as injury to kidney at 30 mg/kg, ip administered once daily for 14 days by hematoxylin and eosin staining-based assay; format: organism-based; conditions: in vivo, 336 h
[32] = Acute toxicity in nude mouse xenografted with human A375 cells assessed as injury to heart at 30 mg/kg, ip administered once daily for 14 days by hematoxylin and eosin staining-based assay; format: organism-based; conditions: in vivo, 336 h
[33] = Acute toxicity in C57BL/6 mouse xenografted with mouse B16F10 cells assessed as injury to lung at 30 mg/kg, ip administered once daily for 2 weeks with 2 days rest after day 5 and measured after 15 days by hematoxylin and eosin staining-based assay; format: organism-based; conditions: in vivo, 360 h
[34] = Acute toxicity in C57BL/6 mouse xenografted with mouse B16F10 cells assessed as injury to spleen at 30 mg/kg, ip administered once daily for 2 weeks with 2 days rest after day 5 and measured after 15 days by hematoxylin and eosin staining-based assay; format: organism-based; conditions: in vivo, 360 h
[35] = Acute toxicity in C57BL/6 mouse xenografted with mouse B16F10 cells assessed as injury to liver at 30 mg/kg, ip administered once daily for 2 weeks with 2 days rest after day 5 and measured after 15 days by hematoxylin and eosin staining-based assay; format: organism-based; conditions: in vivo, 360 h
[36] = Acute toxicity in C57BL/6 mouse xenografted with mouse B16F10 cells assessed as injury to kidney at 30 mg/kg, ip administered once daily for 2 weeks with 2 days rest after day 5 and measured after 15 days by hematoxylin and eosin staining-based assay; format: organism-based; conditions: in vivo, 360 h
[37] = Acute toxicity in C57BL/6 mouse xenografted with mouse B16F10 cells assessed as injury to heart at 30 mg/kg, ip administered once daily for 2 weeks with 2 days rest after day 5 and measured after 15 days by hematoxylin and eosin staining-based assay; format: organism-based; conditions: in vivo, 360 h
[38] = target: Sodium-dependent noradrenaline transporter (Homo sapiens, UniProt P23975); assay: Antagonist activity at human norepinephrine transporter at 1 uM; format: ADME
[39] = target: 5-hydroxytryptamine receptor 2B (Homo sapiens, UniProt P41595); assay: Antagonist activity at human HTR2B at 1 uM
[40] = system: PC-3; assay: Antiproliferative activity against human PC3 cells; format: functional, cell-based
[41] = Antiproliferative activity against human PC3-TxR cells; format: functional, cell-based
[42] = Resistance index, ratio of IC50 for human PC3-TxR cells to IC50 for human PC3 cells; format: functional
[43] = system: DU-145; assay: Antiproliferative activity against human DU145 cells; format: functional, cell-based
[44] = Antiproliferative activity against human DU145-TxR cells; format: functional, cell-based
[45] = Resistance index, ratio of IC50 for human DU145-TxR cells to IC50 for human DU145 cells; format: functional
[46] = Antitumor activity against human PC3-TxR cells xenografted in nude mouse assessed as tumor growth inhibition at 30 mg/kg administered every other day for 3 weeks relative to control; format: functional; conditions: 504 h, read-out: TGI
[47] = Antitumor activity against human PC3-TxR cells xenografted in nude mouse assessed as reduction in tumor weight at 30 mg/kg administered every other day for 3 weeks relative to control; format: functional; parameters: scale not given: the % may be the effect or the level left
[48] = Toxicity in nude mouse xenografted with human PC-3/TxR cells assessed as effect on body weight at 30 mg/kg administered every other day for 3 weeks; conditions: in vivo, 504 h

Sequence of Sodium-dependent noradrenaline transporter (P23975 whole entry): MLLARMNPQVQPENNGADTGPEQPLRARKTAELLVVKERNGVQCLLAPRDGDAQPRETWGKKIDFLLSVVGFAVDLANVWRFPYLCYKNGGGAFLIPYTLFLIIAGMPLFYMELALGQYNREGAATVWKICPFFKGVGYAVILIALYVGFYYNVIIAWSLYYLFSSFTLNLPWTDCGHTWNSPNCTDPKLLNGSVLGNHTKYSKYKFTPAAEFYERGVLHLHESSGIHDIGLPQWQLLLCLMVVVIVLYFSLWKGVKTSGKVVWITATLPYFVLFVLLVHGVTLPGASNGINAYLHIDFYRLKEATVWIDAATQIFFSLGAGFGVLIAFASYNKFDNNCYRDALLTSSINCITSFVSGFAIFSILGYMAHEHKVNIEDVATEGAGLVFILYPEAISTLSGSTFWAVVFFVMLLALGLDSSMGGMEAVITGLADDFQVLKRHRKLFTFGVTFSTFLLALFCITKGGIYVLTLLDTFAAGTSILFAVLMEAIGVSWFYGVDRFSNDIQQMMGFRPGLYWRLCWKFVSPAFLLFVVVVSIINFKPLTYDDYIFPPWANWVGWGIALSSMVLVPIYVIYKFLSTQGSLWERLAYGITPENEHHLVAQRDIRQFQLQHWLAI
Sequence of 5-hydroxytryptamine receptor 2B (P41595 whole entry): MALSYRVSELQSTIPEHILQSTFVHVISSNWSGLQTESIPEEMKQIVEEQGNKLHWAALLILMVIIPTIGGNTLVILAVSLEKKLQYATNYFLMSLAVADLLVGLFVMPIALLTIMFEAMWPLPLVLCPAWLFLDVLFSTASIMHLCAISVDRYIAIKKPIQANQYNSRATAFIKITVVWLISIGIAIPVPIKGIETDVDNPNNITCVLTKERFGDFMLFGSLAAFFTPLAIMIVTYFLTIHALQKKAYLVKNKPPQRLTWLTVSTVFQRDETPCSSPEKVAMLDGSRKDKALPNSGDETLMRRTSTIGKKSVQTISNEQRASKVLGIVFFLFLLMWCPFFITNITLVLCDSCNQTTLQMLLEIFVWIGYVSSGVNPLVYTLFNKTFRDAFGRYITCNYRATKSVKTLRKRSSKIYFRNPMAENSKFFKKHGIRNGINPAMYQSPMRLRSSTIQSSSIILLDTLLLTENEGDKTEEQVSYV

Compound: COc1cc(C(=O)c2c[nH]c(-c3cccc4[nH]ccc34)n2)cc(OC)c1OC
- pIC50 [1]: 8.44
- pIC50 [2]: 8.43
- pIC50 [3]: 8.80
- inhibition [4]: Active
- Activity [5]: Active
- Activity [6]: Active
- inhibition at 0.005 µM [7]: 35.6%
- Activity [8]: 38.5%
- Activity [9]: 38.5%
- Activity [10]: 35%
- half-life [11]: 5.04 h
- CLint scaled [12]: 11.3 mL/min/kg
- half-life [13]: 5.26 h
- CLint scaled [14]: 8.9 mL/min/kg
- half-life [15]: 6.72 h
- CLint scaled [16]: 3.1 mL/min/kg
- MTD [17]: ≤ 65 mg/kg
- inhibition in vivo at 15 mg/kg [18]: 82.3%
- inhibition in vivo at 30 mg/kg [19]: 90.6%
- Activity [20]: 67.3%
- Activity [21]: 70.1%
- Activity [22]: 80.9%
- Activity [23]: Non-Toxic
- Activity [24]: Non-Toxic
- Activity [25]: Non-Toxic
- Activity [26]: Non-Toxic
- Activity [27]: Non-Toxic
- Activity [28]: Non-Toxic
- Activity [29]: Non-Toxic
- Activity [30]: Non-Toxic
- Activity [31]: Non-Toxic
- Activity [32]: Non-Toxic
- Activity [33]: Non-Toxic
- Activity [34]: Non-Toxic
- Activity [35]: Non-Toxic
- Activity [36]: Non-Toxic
- Activity [37]: Non-Toxic
- Activity [38]: Active
- Activity [39]: Active
- pIC50 [40]: 7.05
- pIC50 [41]: 7.17
- Ratio IC50 [42]: 0.7
- pIC50 [43]: 6.77
- pIC50 [44]: 6.42
- Ratio IC50 [45]: 2.2
- inhibition in vivo at 30 mg/kg [46]: 83.8%
- Activity [47]: 62.8%
- Activity [48]: Non-Toxic
